Test results published in patent US20080248511A1, “METHODS TO QUENCH LIGHT FROM OPTICAL REACTIONS” (priority 2007, published 2008).
Read-outs that look alike come from different tables or passages of the source.

Key:
[1] = target: T1, Renilla luciferase (Renilla reniformis, UniProt P27652); assay: Detergent screen with Tergitol NP-9, Renilla luciferase (Example 3); type: biochemical; settings: 0.5% Tergitol NP-9; for Retained Renilla Luminescence (%): 0.06% quencher in reagent solution; for Selectivity Value: retained firefly / retained Renilla, 0.06% quencher
T1 sequence (P27652 1-311): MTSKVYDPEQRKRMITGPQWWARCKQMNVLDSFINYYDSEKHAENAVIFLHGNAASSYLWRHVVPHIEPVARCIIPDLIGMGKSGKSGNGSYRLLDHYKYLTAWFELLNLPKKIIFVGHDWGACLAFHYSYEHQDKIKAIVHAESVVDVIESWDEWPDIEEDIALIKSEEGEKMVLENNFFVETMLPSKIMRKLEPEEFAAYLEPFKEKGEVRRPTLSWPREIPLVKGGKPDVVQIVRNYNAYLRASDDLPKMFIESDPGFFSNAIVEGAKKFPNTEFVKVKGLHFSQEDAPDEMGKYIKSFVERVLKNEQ
Procedure: (§1) Unless otherwise specified, materials were obtained from Sigma-Aldrich.
(§2) The firefly luciferase and Renilla luciferase enzymes were diluted as follows. Firefly luciferase was diluted to 14 ng/ml in Delbecco's Minimal Essential (DMEM) medium (Gibco/Invitrogen) containing 0.1% Prionex®. Renilla luciferase was diluted to 10 ng/ml in DMEM medium containing 0.1% Prionex®.
(§3) The luciferase reactions were initiated by adding 50 μl of the firefly luciferase or Renilla luciferase enzyme solution to 50 μl of reagent solution. The reactions were performed as described above. The retained firefly luciferase and Renilla luciferase luminescence as well as the selectivity values for each quencher were calculated (Table 3). The values listed are based on 0.06% quencher in the reagent solution.

[2] = target: T2, firefly luciferase (Photinus pyralis, UniProt P08659); assay: Detergent screen with Tergitol NP-9, firefly luciferase (Example 3); type: biochemical; settings: 0.06% quencher in reagent solution; 0.5% Tergitol NP-9
Procedure: as §1, §2, §3

[3] = target: T2, firefly luciferase; assay: biochemical; settings: 0.5% detergent in Luciferase Assay Reagent; read-out: Retained Firefly Luciferase Luminescence (%)
Procedure: (§4) The retained luminescence for each luciferase was calculated by dividing the luminescence in the presence of the detergent by the luminescence in the absence of the test detergent. The selectivity value for each of the test detergents was determined by dividing the retained firefly luciferase luminescence by the retained Renilla luciferase luminescence.
(§5) A set of detergents (Table 2; Sigma-Aldrich) was added at 0.5% (from a 5% or 10% stock solution) to either Luciferase Assay Reagent (Promega) or Renilla Luciferase Assay Reagent (Promega) and allowed to equilibrate at room temperature.
(§6) The firefly luciferase and Renilla luciferase enzymes were diluted as follows. Firefly luciferase was diluted to 14 ng/ml in Phosphate Buffered Saline (PBS) containing 0.1% of the protein carrier Prionex® (Pentapharm). Renilla luciferase was diluted to 10 ng/ml in 1× Renilla Luciferase Lysis Buffer (Promega) containing 0.1% Prionex®. The Renilla Luciferase Lysis Buffer […] detergent micelles when using the Renilla Luciferase Assay Reagent. In the absence of other detergents, this prevents sequestering of coelenterazine which inhibits Renilla luciferase-mediated luminescence.
(§7) The luciferase reactions were initiated by adding 40 μl of either the firefly or Renilla luciferase enzyme solution to 200 μl of the appropriate reagent solution (firefly luciferase enzyme solution+firefly luciferase reagent solution or Renilla luciferase enzyme solution+Renilla luciferase reagent solution, respectively). The reactions were performed in an opaque white, 96-well plate and luminescence was measured for 0.5 seconds per well using a Turner BioSystems Veritas™ Microplate luminometer. The retained firefly luciferase and Renilla luciferase luminescence, as well as the selectivity values for each detergent, were calculated (Table 2).

[4] = target: T1, Renilla luciferase; assay: biochemical; type: biochemical; settings: for remaining activity at 0.5 %: 0.5% detergent in Renilla Luciferase Assay Reagent, read-out: Retained Renilla Luciferase Luminescence (%); for Selectivity Value: retained firefly / retained Renilla, 0.5% detergent
Procedure: as §4, §5, §6, §7

[5] = target: T2, firefly luciferase; assay: Detergent titration with Tergitol NP-9, digitonin or no lysing agent, firefly luciferase (Example 4); type: biochemical; settings: read-out: Relative Firefly Luc Intensity; for remaining activity at 0.0005 %: 0.0005% detergent; for remaining activity at 0.005 %: 0.0050% detergent; for remaining activity at 0.05 %: 0.0500% detergent
Procedure: For measurement of firefly luciferase-mediated luminescence, a solution containing 110 mM HEPES pH 7.5, 8 mM MgSO4, 0.05% gelatin, 7.35 ng/ml firefly luciferase (QuantiLum® Luciferase; Promega) and the content of the Steady-Glo Luciferase Substrate (Promega) at the equivalent of 1×, As in the Renilla luciferase reactions, reactions contained either no lysing agent, 0.5% Tergitol NP-9 or 20 μg/ml digitonin. The same detergents were titrated as described above and firefly luciferase-mediated luminescence was measured.

[6] = target: T1, Renilla luciferase; assay: Detergent titration with Tergitol NP-9, digitonin or no lysing agent, Renilla luciferase (Example 4); type: biochemical; settings: for remaining activity at 0.0005 % / remaining activity at 0.005 % / remaining activity at 0.05 %: read-out: Relative Renilla Luc Intensity
Procedure: Renilla luciferase-mediated luminescence was measured from samples containing 9.6 mM phosphate buffer pH 6.8, 2.7 mM KCl, 137 mM NaCl (in PBS), 0.1% gelatin, 75 nM coelentrazine (Promega) and 10.2 ng/ml Renilla luciferase. Reactions contained either no lysing agent, 0.5% Tergitol NP-9 or 20 μg/ml digitonin. The detergents to be tested were titrated to 0.05%, 0.005% or 0.0005% in the reactions prior to the addition of the Renilla luciferase. Renilla luciferase-mediated luminescence was measured as described herein.

[7] = 0.0500% (w:v) detergent, Terg (0.5% Tergitol NP-9)
[8] = 0.0500% detergent, Dig (20 μg/ml digitonin)
[9] = 0.0500% detergent, Water (no lysing agent)

T2 sequence (P08659 whole entry): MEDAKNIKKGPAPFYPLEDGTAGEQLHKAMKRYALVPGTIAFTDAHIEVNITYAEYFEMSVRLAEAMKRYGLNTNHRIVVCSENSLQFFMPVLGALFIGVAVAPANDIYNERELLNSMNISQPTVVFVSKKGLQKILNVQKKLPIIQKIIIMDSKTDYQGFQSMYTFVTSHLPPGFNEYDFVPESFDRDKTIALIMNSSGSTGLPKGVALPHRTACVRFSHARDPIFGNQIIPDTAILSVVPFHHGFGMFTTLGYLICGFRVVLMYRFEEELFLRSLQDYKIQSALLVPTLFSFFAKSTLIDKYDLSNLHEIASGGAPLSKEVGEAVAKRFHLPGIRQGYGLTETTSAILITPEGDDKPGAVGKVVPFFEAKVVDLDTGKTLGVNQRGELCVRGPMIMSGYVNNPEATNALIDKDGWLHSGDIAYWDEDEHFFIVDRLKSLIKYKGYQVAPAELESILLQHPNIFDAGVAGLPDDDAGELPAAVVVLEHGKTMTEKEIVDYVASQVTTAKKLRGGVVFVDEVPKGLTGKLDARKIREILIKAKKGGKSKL

| Compound | remaining activity at 0.5 % [3] | remaining activity at 0.5 % [4] | remaining activity at 0.0005 % ([5]; Dig) | remaining activity at 0.0005 % ([5]; Terg) | remaining activity at 0.0005 % ([5]; Water) | remaining activity at 0.005 % ([5]; Dig) | remaining activity at 0.005 % ([5]; Terg) | remaining activity at 0.005 % ([5]; Water) | remaining activity at 0.05 % ([5]; Dig (20 μg/ml digitonin)) | remaining activity at 0.05 % ([5]; Terg (0.5% Tergitol NP-9)) | remaining activity at 0.05 % ([5]; Water (no lysing agent)) | Selective Inhibition (Ff Luc Inh/Ren Luc Inh) ([6]; 0.0005% detergent, Dig) | remaining activity at 0.0005 % ([6]; 0.0005% detergent, Dig) | Selective Inhibition (Ff Luc Inh/Ren Luc Inh) ([6]; 0.0005% detergent, Terg) | remaining activity at 0.0005 % ([6]; 0.0005% detergent, Terg) | Selective Inhibition (Ff Luc Inh/Ren Luc Inh) ([6]; 0.0005% detergent, Water) | remaining activity at 0.0005 % ([6]; 0.0005% detergent, Water) | Selective Inhibition (Ff Luc Inh/Ren Luc Inh) ([6]; 0.0050% detergent, Dig) | remaining activity at 0.005 % ([6]; 0.0050% detergent, Dig) | Selective Inhibition (Ff Luc Inh/Ren Luc Inh) ([6]; 0.0050% detergent, Terg) | further results |
| --- | --- | --- | --- | --- | --- | --- | --- | --- | --- | --- | --- | --- | --- | --- | --- | --- | --- | --- | --- | --- | --- |
| CCCCCCCCCCCC[N+](C)(C)Cc1ccccc1-c1ccccc1.[Br-] [N-(biphenyl-2-ylmethyl)-NN-dimethyldodecyan-1-ammonium bromide] |  |  |  |  |  |  |  |  |  |  |  |  |  |  |  |  |  |  |  |  | Retained Renilla Luminescence (%) [1]: 0.8%; Selectivity Value [1]: 221.3; Retained Firefly Luminescence (%) [2]: 177.0% |
| CCCCCC[N+](C)(C)Cc1ccccc1.[Br-] [N-benzyl-N,N-dimethylhexan-1-aminium bromide] |  |  |  |  |  |  |  |  |  |  |  |  |  |  |  |  |  |  |  |  | Retained Renilla Luminescence (%) [1]: 54%; Selectivity Value [1]: 1.9; Retained Firefly Luminescence (%) [2]: 103% |
| CCCCC[N+](CCCCC)(CCCCC)CCCCC.[Br-] [Tetrapentylammonium bromide] | 80.9% | 37% | 100% | 97% | 98% | 104% | 96% | 101% | 117% | 95% | 110% | 1.0 | 99% | 1.0 | 96% | 1.0 | 98% | 1.2 | 87% | 1.2 | Selectivity Value [4]: 2.2; remaining activity at 0.005 % ([6]; 0.0050% detergent, Terg): 81%; Selective Inhibition (Ff Luc Inh/Ren Luc Inh) ([6]; 0.0050% detergent, Water): 1.2; remaining activity at 0.005 % ([6]; 0.0050% detergent, Water): 83%; remaining activity at 0.05 % [6, 7]: 38%; Selective Inhibition (Ff Luc Inh/Ren Luc Inh) ([6]; 0.0500% detergent, Dig): 2.9; remaining activity at 0.05 % [6, 8]: 40%; Selective Inhibition (Ff Luc Inh/Ren Luc Inh) ([6]; 0.0500% detergent, Terg): 2.5; Selective Inhibition (Ff Luc Inh/Ren Luc Inh) ([6]; 0.0500% detergent, Water): 3.0; remaining activity at 0.05 % [6, 9]: 37% |
| Cc1cc(C)c(C[N+](C)(C)C)cc1C.[Br-] [Trimethyl(2,4,5-Trimethylbenzyl)ammonium bromide] | 0.06% | 1.87% | 116% | 95% | 116% | 52% | 83% | 54% | 1% | 12% | 1% | 1.8 | 63% | 1.0 | 92% | 1.9 | 62% | 18 | 3% | 1.2 | remaining activity at 0.005 % ([6]; 0.0050% detergent, Terg): 67%; Selective Inhibition (Ff Luc Inh/Ren Luc Inh) ([6]; 0.0050% detergent, Water): 17; remaining activity at 0.005 % ([6]; 0.0050% detergent, Water): 3%; remaining activity at 0.05 % [6, 7]: 4%; Selective Inhibition (Ff Luc Inh/Ren Luc Inh) ([6]; 0.0500% detergent, Dig): 47; remaining activity at 0.05 % [6, 8]: 0.03%; Selective Inhibition (Ff Luc Inh/Ren Luc Inh) ([6]; 0.0500% detergent, Terg): 2.9; Selective Inhibition (Ff Luc Inh/Ren Luc Inh) ([6]; 0.0500% detergent, Water): 50; remaining activity at 0.05 % [6, 9]: 0.03% |
| CCCCCCCCCCCC[N+](C)(C)C.[Br-] [Dodecyltrimethylammonium bromide] | 42.1% | 1.74% | 103% | 96% | 107% | 128% | 93% | 128% | 184% | 71% | 197% | 1.1 | 96% | 1.0 | 98% | 1.1 | 95% | 2.3 | 55% | 1.2 | Selectivity Value [4]: 24.2; remaining activity at 0.005 % ([6]; 0.0050% detergent, Terg): 76%; Selective Inhibition (Ff Luc Inh/Ren Luc Inh) ([6]; 0.0050% detergent, Water): 2.5; remaining activity at 0.005 % ([6]; 0.0050% detergent, Water): 51%; remaining activity at 0.05 % [6, 7]: 9%; Selective Inhibition (Ff Luc Inh/Ren Luc Inh) ([6]; 0.0500% detergent, Dig): 98; remaining activity at 0.05 % [6, 8]: 2%; Selective Inhibition (Ff Luc Inh/Ren Luc Inh) ([6]; 0.0500% detergent, Terg): 8; Selective Inhibition (Ff Luc Inh/Ren Luc Inh) ([6]; 0.0500% detergent, Water): 110; remaining activity at 0.05 % [6, 9]: 2% |
| CCCCCCCCCCCCCC[N+](C)(C)Cc1ccccc1.[Br-] [Benzyldimethyltetradecylammonium bromide] | 0.21% | 0.13% | 155% | 98% | 126% | 128% | 93% | 106% | 1.4% | 45% | 10% | 11.0 | 14% | 1.0 | 96% | 10.2 | 12% | 5067 | 0.03% | 1.3 | Selectivity Value [4]: 1.6; remaining activity at 0.005 % ([6]; 0.0050% detergent, Terg): 70%; Selective Inhibition (Ff Luc Inh/Ren Luc Inh) ([6]; 0.0050% detergent, Water): 7068; remaining activity at 0.005 % ([6]; 0.0050% detergent, Water): 0.01%; remaining activity at 0.05 % [6, 7]: 5%; Selective Inhibition (Ff Luc Inh/Ren Luc Inh) ([6]; 0.0500% detergent, Dig): 60; remaining activity at 0.05 % [6, 8]: 0.02%; Selective Inhibition (Ff Luc Inh/Ren Luc Inh) ([6]; 0.0500% detergent, Terg): 10; Selective Inhibition (Ff Luc Inh/Ren Luc Inh) ([6]; 0.0500% detergent, Water): 451; remaining activity at 0.05 % [6, 9]: 0.02% |
